Laboratory results as given in PMC7470124, “Efficient synthesis, biological evaluation, and docking study of isatin based derivatives as caspase inhibitors” (Journal of Enzyme Inhibition and Medicinal Chemistry, 2020).
“Also recorded” adds a separate entry of the source.

Assays:
[1] = system: caspase-3 and −7; assay: Caspase-3 and -7 inhibition, acetyl-DEVD-AMC fluorogenic substrate assay (text does not say which caspase); assay type: biochemical; details: for Selectivity Index (SI): IC50 caspase-7/IC50 caspase-3, greater than 1.5 = selective inhibitor of caspase-3; for inhibitory activity against caspase-3 and −7 (in words): compared to Ac-DEVD-CHO; for inhibition percentage: at 20 μg/ml, caspase not given
Method: (§1) The inhibitory activities of newly synthesised 2–(2,3-dioxoindolin-1-yl)-N-substituted phenyl acetamide, 1-(prop-2-yn-1-yl)indoline-2,3-dione and two series of compounds containing 1-(pyrrolidinyl)sulphonyl and 2-(phenoxymethyl)pyrrolidin-1-yl)sulphonyl substitution at C^5 position of isatin core (B, C, Table 1) against caspase-3 and −7 were evaluated by using the acetyl-DEVD-AMC fluorogenic substrate assay. The results are expressed as inhibition percentage and IC50 values in Table 1. We used Ac-DEVD-CHO as the positive control.
(§2) The activity assay of caspase-3 was performed in a system of 50 µL containing 150 mM NaCl, 1 mM EDTA, 2 mM DTT, 50 mM HEPES pH 7.4, 10 µM Ac-DEVD-AMC (Bachem Bioscience, Philadelphia, PA, USA) and 2 nM caspase-3 in the 1 µL DMSO. Caspase-3 was incubated with synthesised compounds in 384-well plates for 10 min. […] The enzymatic activity of the caspase-3 was measured based on production of a fluorogenic substrate, 7-amino-4-methyl coumarin, which was monitored for 10 min and detected using an EnVision (PerkinElmer, Wellesley, MA, USA) at λex = 360 nm and λem= 460 nm. The initial rate of hydrolysis was determined using the early linear region of the enzymatic reaction curve.

[2] = biological target: T1, caspase-3 (Homo sapiens, UniProt P42574); assay: Caspase-3 inhibition assay (Ac-DEVD-AMC fluorogenic substrate); assay type: biochemical
T1 sequence (P42574 29-175 limits assumed): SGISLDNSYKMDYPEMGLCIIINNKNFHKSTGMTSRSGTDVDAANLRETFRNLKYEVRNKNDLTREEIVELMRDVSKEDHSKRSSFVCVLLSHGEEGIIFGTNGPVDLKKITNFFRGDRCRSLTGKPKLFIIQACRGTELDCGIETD
T1 sequence (P42574 176-277 limits assumed): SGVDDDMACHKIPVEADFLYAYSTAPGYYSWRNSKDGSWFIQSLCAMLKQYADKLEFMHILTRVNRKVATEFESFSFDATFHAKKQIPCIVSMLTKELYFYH
Method: as §1, §2

| melting point [°C] | Molecule | also measured |
| --- | --- | --- |
| 196 to 198 | O=C(CN1C(=O)C(=O)c2cc(S(=O)(=O)N3CCC[C@H]3COc3ccccc3)ccc21)Nc1ccc(Br)cc1 [20e, (S)-N-(4-Bromophenyl)-2–(2,3-dioxo-5-((2-(phenoxymethyl)pyrrolidin-1-yl)sulphonyl)indolin-1-yl)acetamide] | Selectivity Index (SI) [1]: greater than 1.5 |
| 209 to 211 | O=C(CN1C(=O)C(=O)c2cc(S(=O)(=O)N3CCC[C@H]3COc3ccccc3)ccc21)Nc1ccc(Cl)cc1 [20d, (S)-N-(4-chlorophenyl)-2–(2,3-dioxo-5-((2-(phenoxymethyl)pyrrolidin-1-yl)sulphonyl)indolin-1-yl)acetamide] | IC50 [2]: 2330 nM; Selectivity Index (SI) [1]: greater than 1.5; inhibitory activity against caspase-3 and −7 (in words) [1]: most active compound; also recorded: moderate inhibitory activity |
| 162 to 164 | O=C(CN1C(=O)C(=O)c2cc(S(=O)(=O)N3CCC[C@H]3COc3ccccc3)ccc21)Nc1ccc([N+](=O)[O-])cc1 [20h, (S)-2–(2,3-Dioxo-5-((2-(phenoxymethyl)pyrrolidin-1-yl)sulphonyl)indolin-1-yl)-N-(4-nitrophenyl)acetamide] |  |
| 204 to 206 | COc1ccc(NC(=O)CN2C(=O)C(=O)c3cc(S(=O)(=O)N4CCC[C@H]4COc4ccccc4)ccc32)cc1 [20k, (S)-2–(2,3-Dioxo-5-((2-(phenoxymethyl)pyrrolidin-1-yl)sulphonyl)indolin-1-yl)-N-(4-methoxyphenyl)acetamide] | inhibitory activity against caspase-3 and −7 (in words) [1]: lowest enzymatic inhibition |
| 238 to 240 | O=C(CN1C(=O)C(=O)c2cc(S(=O)(=O)N3CCC[C@H]3COc3ccccc3)ccc21)Nc1ccccc1 [20b, (S)-2–(2,3-Dioxo-5-((2-(phenoxymethyl)pyrrolidin-1-yl)sulphonyl)indolin-1-yl)-N-phenylacetamide] |  |
| 108 to 110 | O=C(CN1C(=O)C(=O)c2cc(S(=O)(=O)N3CCC[C@H]3COc3ccccc3)ccc21)Nc1ccc(F)cc1 [20c, (S)-2–(2,3-Dioxo-5-((2-(phenoxymethyl)pyrrolidin-1-yl)sulphonyl)indolin-1-yl)-N-(4-fluorophenyl)acetamide] | Selectivity Index (SI) [1]: greater than 1.5 |
| 218 to 220 | O=C(CN1C(=O)C(=O)c2cc(S(=O)(=O)N3CCC[C@H]3COc3ccccc3)ccc21)Nc1ccc(OC(F)(F)F)cc1 [20i, (S)-2–(2,3-Dioxo-5-((2-(phenoxymethyl)pyrrolidin-1-yl)sulphonyl)indolin-1-yl)-N-(4-(trifluoromethoxy)phenyl)acetamide] |  |
| 180 to 182 | O=C(CN1C(=O)C(=O)c2cc(S(=O)(=O)N3CCC[C@H]3COc3ccccc3)ccc21)Nc1ccccc1[N+](=O)[O-] [20f, (S)-2–(2,3-Dioxo-5-((2-(phenoxymethyl)pyrrolidin-1-yl)sulphonyl)indolin-1-yl)-N-(2-nitrophenyl)acetamide] | inhibitory activity against caspase-3 and −7 (in words) [1]: moderated caspase-3 and −7 inhibitors |
| 209 to 211 | Cc1ccc(NC(=O)CN2C(=O)C(=O)c3cc(S(=O)(=O)N4CCC[C@H]4COc4ccccc4)ccc32)cc1 [20j, (S)-2–(2,3-Dioxo-5-((2-(phenoxymethyl)pyrrolidin-1-yl)sulphonyl)indolin-1-yl)-N-(p-tolyl)acetamide] | inhibitory activity against caspase-3 and −7 (in words) [1]: lowest enzymatic inhibition |
| 282 to 284 | C#CCN1C(=O)C(=O)c2cc(S(=O)(=O)N3CCC[C@H]3COc3ccccc3)ccc21 [20a, (S)-5-((2-(Phenoxymethyl)pyrrolidin-1-yl)sulphonyl)-1-(prop-2-yn-1-yl)indoline-2,3-dione] |  |
| 181 to 183 | O=C(CN1C(=O)C(=O)c2cc(S(=O)(=O)N3CCC[C@H]3COc3ccccc3)ccc21)Nc1cccc([N+](=O)[O-])c1 [20g, (S)-2–(2,3-Dioxo-5-((2-(phenoxymethyl)pyrrolidin-1-yl)sulphonyl)indolin-1-yl)-N-(3-nitrophenyl)acetamide] |  |

The next lines start with the molecule.

| Molecule | melting point [°C] | also measured |
| --- | --- | --- |
| C#CCN1C(=O)C(=O)c2ccccc21 [11a, 1-(Prop-2-yn-1-yl)indoline-2,3-dione] | 158 to 160 |  |
| O=C(CN1C(=O)C(=O)c2ccccc21)Nc1cccc([N+](=O)[O-])c1 [11g, 2–(2,3-Dioxoindolin-1-yl)-N-(3-nitrophenyl)acetamide] | 191 to 192 |  |
| O=C(CN1C(=O)C(=O)c2ccccc21)Nc1ccc(Cl)cc1 [11d, N-(4-Chlorophenyl)-2–(2,3-dioxoindolin-1-yl)acetamide] | 177 to 179 |  |
| O=C(CN1C(=O)C(=O)c2ccccc21)Nc1ccc(OC(F)(F)F)cc1 [11i, 2–(2,3-Dioxoindolin-1-yl)-N-(4-(trifluoromethoxy)phenyl)acetamide] | 209 to 211 |  |
| O=C(CN1C(=O)C(=O)c2ccccc21)Nc1ccc(Br)cc1 [11e, N-(4-Bromophenyl)-2–(2,3-dioxoindolin-1-yl)acetamide] | 179 to 181 |  |
| O=C(CN1C(=O)C(=O)c2cc(S(=O)(=O)N3CCCC3)ccc21)Nc1ccc(OC(F)(F)F)cc1 [19i, 2–(2,3-Dioxo-5-(pyrrolidin-1-ylsulfonyl)indolin-1-yl)-N-(4-(trifluoromethoxy)phenyl)acetamide] | 266 to 267 |  |
| Ac-DEVD-CHO [reference compound] |  | IC50 ([1]; caspase-3 and −7, Mean ± SD of three experiments, read-out: IC50 (positive control / studied compounds)): 16 ± 2 nM |
| Cc1ccc(NC(=O)CN2C(=O)C(=O)c3ccccc32)cc1 [11j, 2–(2,3-Dioxoindolin-1-yl)-N-(p-tolyl)acetamide] | 196 to 198 |  |
| O=C(CN1C(=O)C(=O)c2ccccc21)Nc1ccc([N+](=O)[O-])cc1 [11h, 2–(2,3-Dioxoindolin-1-yl)-N-(4-nitrophenyl)acetamide] | 179 to 181 |  |
| O=C(CN1C(=O)C(=O)c2ccccc21)Nc1ccccc1[N+](=O)[O-] [11f, 2–(2,3-Dioxoindolin-1-yl)-N-(2-nitrophenyl)acetamide] | 186 to 188 | inhibition percentage [1]: 5% |
| COc1ccc(NC(=O)CN2C(=O)C(=O)c3ccccc32)cc1 [11k, 2–(2,3-Dioxoindolin-1-yl)-N-(4-methoxyphenyl)acetamide] | 201 to 203 |  |
| O=C(CN1C(=O)C(=O)c2ccccc21)Nc1ccc(F)cc1 [11c, 2–(2,3-Dioxoindolin-1-yl)-N-(4-fluorophenyl)acetamide] |  | inhibition percentage [1]: 71% |
| O=C(CN1C(=O)C(=O)c2ccccc21)Nc1ccccc1 [11b, 2–(2,3-Dioxoindolin-1-yl)-N-phenylacetamide] | 174 to 176 |  |
| O=C(CN1C(=O)C(=O)c2cc(S(=O)(=O)N3CCCC3)ccc21)Nc1ccccc1[N+](=O)[O-] [19f, 2–(2,3-Dioxo-5-(pyrrolidin-1-ylsulfonyl)indolin-1-yl)-N-(2-nitrophenyl)acetamide] | 195 to 197 |  |
| C#CCN1C(=O)C(=O)c2cc(S(=O)(=O)N3CCCC3)ccc21 [19a, 1-(Prop-2-yn-1-yl)-5-(pyrrolidin-1-ylsulfonyl)indoline-2,3-dione] | 203 to 205 | Selectivity Index (SI) [1]: greater than 1.5 |
| O=C(CN1C(=O)C(=O)c2cc(S(=O)(=O)N3CCCC3)ccc21)Nc1ccc(F)cc1 [19c, 2–(2,3-Dioxo-5-(pyrrolidin-1-ylsulfonyl)indolin-1-yl)-N-(4-fluorophenyl)acetamide] | 191 to 193 |  |
